Experiments:
[1] = target: T1, AMP-binding enzyme family protein (Yersinia pestis, UniProt Q56950); experiment: Inhibition of Yersinia pestis YbtE assessed as incorporation of [3H]salicyl group to HMWP2 protein
T1 sequence (Q56950 whole entry): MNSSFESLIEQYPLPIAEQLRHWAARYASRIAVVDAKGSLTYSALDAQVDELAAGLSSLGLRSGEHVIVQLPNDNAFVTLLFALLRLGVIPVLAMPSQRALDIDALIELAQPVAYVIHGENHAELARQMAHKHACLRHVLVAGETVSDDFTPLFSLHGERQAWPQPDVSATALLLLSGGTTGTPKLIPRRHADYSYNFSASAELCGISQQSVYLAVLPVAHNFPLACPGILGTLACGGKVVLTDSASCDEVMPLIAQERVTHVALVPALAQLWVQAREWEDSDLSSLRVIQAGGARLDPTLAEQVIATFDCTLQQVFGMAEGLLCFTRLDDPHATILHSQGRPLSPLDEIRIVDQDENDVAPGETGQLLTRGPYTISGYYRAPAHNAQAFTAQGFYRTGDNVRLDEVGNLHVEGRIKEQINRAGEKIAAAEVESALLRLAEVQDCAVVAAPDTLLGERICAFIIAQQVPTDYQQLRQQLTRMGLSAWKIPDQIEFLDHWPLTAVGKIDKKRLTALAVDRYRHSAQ

Yersinia pestis [2] = experiment: Antimicrobial activity against Yersinia pestis KIM6-2082.1+ in presence of iron limiting PMH-D medium; assay type: functional, organism-based
[3] = tested on: Mycobacterium tuberculosis; experiment: Ratio of MIC90 for Mycobacterium tuberculosis H37Rv in iron rich GAST-D medium to MIC90 for Mycobacterium tuberculosis H37Rv in presence of iron limiting GAST-D medium; assay type: functional
Yersinia pestis [4] = experiment: Antimicrobial activity against Yersinia pestis KIM6-2082.1+ in presence of iron rich PMH-D medium; assay type: functional, organism-based
[5] = tested on: Mycobacterium tuberculosis; experiment: Antimycobacterial activity against Mycobacterium tuberculosis H37Rv in presence of iron rich GAST-D medium; assay type: functional, organism-based
[6] = tested on: Mycobacterium tuberculosis; experiment: Antimycobacterial activity against Mycobacterium tuberculosis H37Rv in presence of iron deficient GAST-D medium; assay type: functional, organism-based
[7] = Cytotoxicity against human HeLa cells after 24 hrs; assay type: cell-based; settings: read-out: CD50
Yersinia pestis [8] = experiment: Ratio of MIC90 for Yersinia pestis KIM6-2082.1+ in iron rich PMH-D medium to MIC90 for Yersinia pestis KIM6-2082.1+ in presence of iron limiting PMH-D medium; assay type: functional

SMILES	IC50 [1] [µM]	IC50 (Yersinia pestis [2]) [µM]	MIC90 (Yersinia pestis [2]) [µM]	Ratio [3]	IC50 (Yersinia pestis [4]) [µM]	MIC90 (Yersinia pestis [4]) [µM]	IC50 [5] [µM]	MIC90 [5] [µM]	IC50 [6] [µM]	MIC90 [6] [µM]	CC50 at 24 h [7] [µM]	Ratio (Yersinia pestis [8])
COc1cc([C@@H]2CC(c3ccc(O)cc3O)=NN2C(=S)Nc2ccccc2)ccc1O	0.7	0.6	2	>4	> 150	> 150	333	> 500	84	125	30	>75
COc1cc([C@@H]2CC(c3ccccc3O)=NN2C(=S)Nc2ccccc2C)ccc1O	1	3	9	>1	> 19	> 19	96	> 500	101	417	15	>2
Oc1ccccc1C1=NN(C(=S)Nc2ccccc2)[C@H](c2ccccc2O)C1	0.6	0.7	2	1	> 19	> 19	65	100	29	83	3	>10
COc1ccc(NC(=S)N2N=C(c3ccccc3O)C[C@H]2c2ccccc2O)cc1	0.2	1	3	>4	> 2	> 2	167	> 250	28	63	1	>0.7
Cc1ccc(NC(=S)N2N=C(c3ccccc3O)C[C@H]2c2ccccc2O)cc1	0.5	0.8	2	>4	> 9	> 9	208	> 250	27	63	11	>5
Oc1ccccc1C1=NN(C(=S)Nc2ccccc2)[C@H](c2ccco2)C1	0.3	1	2	1	> 9	> 9	72	208	73	250	3	>5
COc1ccccc1NC(=S)N1N=C(c2ccc(O)cc2O)C[C@H]1c1ccc(O)cc1	0.6	0.7	3	2	> 150	> 150	156	250	80	125	23	>50
Cc1ccccc1NC(=S)N1N=C(c2ccccc2O)C[C@H]1c1ccccc1O	1	2	5	>5	> 19	> 19	42	> 500	28	104	17	>4
Cc1ccccc1NC(=S)N1N=C(c2ccccc2O)C[C@H]1c1ccc(O)cc1	0.7	3	5	7	> 19	> 19	83	417	29	63	21	>4
COc1ccc(NC(=S)N2N=C(c3ccc(O)cc3O)C[C@H]2c2ccc(O)cc2)cc1	> 12.5	0.4	5	>3	> 150	> 150	250	> 500	63	167	62	>30

— ChEMBL document CHEMBL1144812, “Small molecules with structural similarities to siderophores as novel antimicrobials against Mycobacterium tuberculosis and Yersinia pestis” (Bioorg Med Chem Lett, 2008)
